Data reported in patent US20260159519A1, “IMIDAZOPYRIDAZINE SUBSTITUTED BENZENE RING DERIVATIVE, PREPARATION METHOD, PHARMACEUTICAL COMPOSITION AND USE” (SHANGHAI SIMR BIOTECHNOLOGY CO., LTD., priority 2022, published 2026).

Target: T1, human α2-GABAA receptor (BZD site, membrane protein of HEK293 cells) (Homo sapiens, UniProt P18507+P47869)
T1 construct: expressed in transfected cells
Experiment: Radioligand competitive binding assay (3H-flunitrazepam) at the BZD site of the α2-GABAA receptor
Conditions: competition with 1 nM 3H-flunitrazepam; Ki calculated from IC50; read-out: α2 Ki

Structure (SMILES) | Ki [nM]
CCN1C(=O)COc2cc(-c3cc(-c4cnnc5c4ncn5CC)ccc3F)c(OC)cc21 [Example 31, 4-Ethyl-7-(5-(7-ethyl-7H-imidazo[4,5-c]pyridazin-4-yl)-2-fluorophenyl)-6-methoxy-2H-benzo[b][1,4]oxazin-3(4H)-one] | 6.85
COc1cc2c(cc1-c1cc(-c3cnnc4c3ncn4C(C)C)ccc1F)OCC(=O)N2C [Example 36, 7-(2-Fluoro-5-(7-isopropyl-7H-imidazo[4,5-c]pyridazin-4-yl)phenyl)-6-methoxy-4-methyl-2H-benzo[b][1,4]oxazin-3(4H)-one] | 5.73
CCn1cnc2c(-c3ccc(F)c(-c4cc5c(cc4OC)N(C)C(=O)CO5)c3)cnnc21 [Example 42, 7-(5-(7-Ethyl-7H-imidazo[4,5-c]pyridazin-4-yl)-2-fluorophenyl)-6-methoxy-4-methyl-2H-benzo[b][1,4]oxazin-3(4H)-one] | 2.92

Other lines, results leading:

Ki [nM] | Structure (SMILES)
3.38 | CCn1cnc2c(-c3ccc(F)c(-c4cc5oc(=O)n(C)c5cc4OC)c3)cnnc21 [Example 87, 6-(5-(7-Ethyl-7H-imidazo[4,5-c]pyridazin-4-yl)-2-fluorophenyl)-5-methoxy-3-methylbenzo[d]oxazol-2(3H)-one]
8.7 | CCn1cnc2c(-c3ccc(F)c(-c4cc5c(cc4OC)N(C)C(=O)C5)c3)cnnc21 [Example 161, 5-(5-(7-Ethyl-7H-imidazo[4,5-c]pyridazin-4-yl)-2-fluorophenyl)-6-methoxy-1-methyldihydro-2-one]
